# Source: patent US20070292405A1, “Uses of Erss Modulators” (priority 2004, published 2007)
# Tests used:
# [1] = target: T1, human androgen receptor (hAR) (Homo sapiens, UniProt P10275); test: Luciferase reporter assay: transactivation of PSA-Luc reporter in COS-1 cells containing hAR; format: cell-based
# T1 construct: expressed in transfected cells; host or cells: COS-1
# T1 sequence (P10275 1-920): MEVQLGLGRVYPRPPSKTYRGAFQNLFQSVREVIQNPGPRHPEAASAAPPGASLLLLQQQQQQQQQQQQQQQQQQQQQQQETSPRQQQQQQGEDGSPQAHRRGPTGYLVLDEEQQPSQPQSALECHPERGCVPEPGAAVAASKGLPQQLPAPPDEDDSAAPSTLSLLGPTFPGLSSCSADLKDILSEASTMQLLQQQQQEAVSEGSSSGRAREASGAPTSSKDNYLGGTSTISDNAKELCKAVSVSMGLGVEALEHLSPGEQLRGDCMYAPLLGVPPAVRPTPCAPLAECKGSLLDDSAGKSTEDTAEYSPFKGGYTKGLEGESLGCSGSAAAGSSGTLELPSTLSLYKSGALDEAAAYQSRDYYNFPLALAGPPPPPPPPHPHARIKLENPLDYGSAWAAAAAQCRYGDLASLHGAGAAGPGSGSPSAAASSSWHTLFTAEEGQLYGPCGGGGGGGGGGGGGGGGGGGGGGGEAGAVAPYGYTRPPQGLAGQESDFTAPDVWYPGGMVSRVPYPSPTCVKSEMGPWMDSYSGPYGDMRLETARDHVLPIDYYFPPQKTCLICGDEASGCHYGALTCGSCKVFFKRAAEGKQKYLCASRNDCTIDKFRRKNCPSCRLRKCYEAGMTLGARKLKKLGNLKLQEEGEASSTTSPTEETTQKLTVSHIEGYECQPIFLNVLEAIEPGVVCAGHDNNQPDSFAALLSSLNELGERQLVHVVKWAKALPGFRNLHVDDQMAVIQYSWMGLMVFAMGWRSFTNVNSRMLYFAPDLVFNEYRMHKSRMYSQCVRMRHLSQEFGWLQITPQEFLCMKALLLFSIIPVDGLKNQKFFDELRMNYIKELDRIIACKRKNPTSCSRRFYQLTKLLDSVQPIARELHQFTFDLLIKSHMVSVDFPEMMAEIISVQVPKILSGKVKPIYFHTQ
# Experimental: (§1) Values shown are means (±S.E.M.) of 3 to 5 independent experiments each carried out in triplicate.
# COS-1 cells and HepG2 cells were maintained in high glucose Dulbecco's minimum essential medium (DMEM) containing penicillin (25 units/ml), streptomycin (25 μg/ml), and 10% fetal calf serum (v/v). Cells were seeded at a density of 5×10^5 cells/dish and left to adhere overnight. On the day of the transfection, the medium was replaced with DMEM lacking phenol red supplemented with 10% DCC-FCS (v/v). Transfections were carried out using the calcium phosphate procedure according to standard protocols with 10 μg DNA ([…] expression plasmid, 1-5 μg reporter plasmid, 1 μg pCH110 encoding β-galactosidase used as internal control (Pharmacia) and 3-7 μg pGEM3). Expession plasmid were: the mouse ERα receptor (mERα gift from Prof. M. Parker, London U.K. (31)), human ERβ. receptor (hERβ; from Dr R. White, London U.K. (32)) and human androgen receptor (pSVARo; Prof. A. Brinkman, Rotterdam Holand). […] Following cell lysis, luciferase and β-galactosidase activities were measured as described (33). Data are expressed as relative luciferase/β-galactosidase and are means±S.E.M. from at least three independent experiments. […]
# human ERβ receptor = target: T2, human ERβ receptor (Homo sapiens, UniProt Q92731); test: Ligand-competition study: [3H]-E2 binding to in vitro synthesised ERβ protein; conditions: 7HD 0-250 μM, 16 h, reticulocyte lysate
# T2 construct: made in house; host or cells: cell-free: TnT-coupled reticulocyte lysate system (Promega)
# T2 sequence (Q92731 whole entry): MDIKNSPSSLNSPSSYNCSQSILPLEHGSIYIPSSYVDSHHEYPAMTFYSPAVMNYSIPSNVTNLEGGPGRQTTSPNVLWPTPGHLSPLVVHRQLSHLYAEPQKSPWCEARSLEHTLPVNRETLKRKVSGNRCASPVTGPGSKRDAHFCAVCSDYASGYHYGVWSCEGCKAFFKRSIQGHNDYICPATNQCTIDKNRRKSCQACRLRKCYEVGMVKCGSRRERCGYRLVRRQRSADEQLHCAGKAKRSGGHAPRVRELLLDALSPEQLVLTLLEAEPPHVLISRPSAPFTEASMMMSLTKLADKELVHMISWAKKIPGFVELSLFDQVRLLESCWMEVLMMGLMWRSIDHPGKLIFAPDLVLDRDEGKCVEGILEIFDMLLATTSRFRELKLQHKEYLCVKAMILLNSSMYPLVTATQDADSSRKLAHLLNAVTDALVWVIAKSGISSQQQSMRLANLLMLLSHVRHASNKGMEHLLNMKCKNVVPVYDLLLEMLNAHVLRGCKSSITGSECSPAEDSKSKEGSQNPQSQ
# Experimental: Reticulocyte lysate containing ERβ protein was equilibrated for 16 h with […] [3H]-E2 and the indicated fold excess of 7HD. Data represent [3H]-E2 bound in presence of 7HD (0-250 μM). [3H]-E2 binding in the absence of 7HD was set at 100%. *, p<0.001 and γ, p<0.01; 7HD vs control without 7HD.
# Human ERβ clone was synthesised in vitro using the TnT-coupled reticulocyte lysate system following manufacturer instructions (Promega, Southampton, U.K.). Translation reaction mixtures were diluted five times with TEDGMo buffer (40 mM Tris/Hcl, pH 7.4/1 mM EDTA/10% (vol/vol) glycerol/10 mMNa2MoO4/10 mM DTT) and 0.1 ml aliquots were incubated for 16 h at 4° C. with 0.5 nM [2,4,6,7-^3H]4-E2 (specific radioactivity 89 Ci/mmol) in presence of either 0, 1, 5, 10, 20, 50 and 250 μM of 7HD. Bound and unbound steroids were separated by filtration.
# The ability of 7HD to inhibit [^3H]-E2 binding was also measured by a competition binding assay using human ERβ receptor synthesised in vitro from our human ERβ clone (hERβ) using a TnT-coupled reticulocyte lysate system (FIG. 7). In our competition study, 7HD interacted with ERβ receptor and inhibited [^3H]-E2 binding dose-dependently.
# [2] = target: T3, mouse ERα receptor (mERα) (Mus musculus, UniProt P19785); test: Luciferase reporter assay: transactivation of (ERE)-TK-Luc by ERα in COS cells; format: cell-based; conditions: for activation of ERα (in words): compound alone, 7HD at similar concentration as for ERβ, ICI 182, 780 at 1 μM
# T3 construct: expressed in transfected cells; host or cells: COS (COS-1)
# T3 sequence (P19785 1-599): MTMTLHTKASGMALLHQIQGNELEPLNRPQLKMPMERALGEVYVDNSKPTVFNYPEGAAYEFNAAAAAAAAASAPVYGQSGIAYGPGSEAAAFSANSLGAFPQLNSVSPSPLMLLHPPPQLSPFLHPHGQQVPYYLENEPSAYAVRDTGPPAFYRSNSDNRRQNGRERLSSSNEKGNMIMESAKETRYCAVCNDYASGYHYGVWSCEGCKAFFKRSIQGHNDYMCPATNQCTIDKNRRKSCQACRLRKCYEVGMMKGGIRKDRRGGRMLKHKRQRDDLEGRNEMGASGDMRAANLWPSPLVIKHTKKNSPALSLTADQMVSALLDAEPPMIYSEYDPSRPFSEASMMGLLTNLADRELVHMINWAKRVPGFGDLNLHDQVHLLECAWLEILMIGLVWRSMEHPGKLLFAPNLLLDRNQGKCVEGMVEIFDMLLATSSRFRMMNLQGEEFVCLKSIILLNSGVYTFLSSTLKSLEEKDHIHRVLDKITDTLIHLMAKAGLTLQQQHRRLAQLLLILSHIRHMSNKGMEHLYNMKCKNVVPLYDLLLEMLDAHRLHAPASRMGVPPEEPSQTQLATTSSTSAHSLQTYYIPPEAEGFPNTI
# Experimental: as §1
# (§2) COS-1 cells and HepG2 cells were maintained in high glucose Dulbecco's minimum essential medium (DMEM) containing penicillin (25 units/ml), streptomycin (25 μg/ml), and 10% fetal calf serum (v/v). Cells were seeded at a density of 5×10^5 cells/dish and left to adhere overnight. On the day of the transfection, the medium was replaced with DMEM lacking phenol red supplemented with 10% DCC-FCS (v/v). Transfections were carried out using the calcium phosphate procedure according to standard protocols with 10 μg DNA ([…] expression plasmid, 1-5 μg reporter plasmid, 1 μg pCH110 encoding β-galactosidase used as internal control (Pharmacia) and 3-7 μg pGEM3). Expession plasmid were: the mouse ERα receptor (mERα gift from Prof. M. Parker, London U.K. (31)), human ERβ. receptor (hERβ; from Dr R. White, London U.K. (32)) and human androgen receptor (pSVARo; Prof. A. Brinkman, Rotterdam Holand). […] Reporter plasmids were: (ERE)-TK-Luc (gift From Dr V. Giguere, Montreal, Canada) for estrogen responsivity and PSA (PSA61-luc, Prof. J. Trapman, Rotterdam Holland) for androgen responsivity. […] Following cell lysis, luciferase and β-galactosidase activities were measured as described (33). Data are expressed as relative luciferase/β-galactosidase and are means±S.E.M. from at least three independent experiments.
# (§3) Both COS-1 cells and HepG2 cells were used and both these cell lines require exogenous AR, ERα and ERβ to activate androgen (PSA) or estrogen (ERE) responsive reporter genes.
# [3] = target: T4, human ERβ receptor (hERβ) (Homo sapiens, UniProt Q92731); test: Luciferase reporter assay: transactivation of (ERE)-TK-Luc by ERβ in HepG2 cells; format: cell-based
# T4 construct: expressed in transfected cells; host or cells: HepG2
# T4 sequence (Q92731 whole entry): as the sequence (Q92731 whole entry) above
# Experimental: as §1, §2, §3
# [4] = tested on: whole human prostate chips; test: DHEA metabolism in whole human prostate chips, metabolites analysed by HPLC; format: in vitro ADME
# 3β-HSD = test: Production of A/anedione from DHEA in human prostate chips (TLC); format: biochemical; conditions: 1 μM trilostane
smiles,measurement,setting,value
"C[C@]12CC[C@H](O)CC1=C[C@@H](O)[C@@H]1[C@@H]2CC[C@]2(C)C(=O)CC[C@@H]12 [7HD, 7α-hydroxyDHEA]",activation of androgen receptor dependent transcription of PSA-luciferase reporter (in words),[1],unable to activate
same,inhibition of [3H]-E2 binding to ERβ,human ERβ receptor,dose-dependently
same,activation of ERα (in words),[2],"minimal, non-specific activation"
same,EC50,"[3]; (ERE)-TK-Luc, HepG2 cells, read-out: EC50 of activation of ERβ-mediated transcription",6.2 µM
same,transcriptional effect combined with sub-minimal dose of E2,"[3]; E2 0.1 nM, p<0.01",additive
same,activation of ERβ-mediated transcription (in words),"[3]; compound alone, ICI 182, 780 at 1 μM",significantly activated
"C[C@]12CC[C@H](O)CC1=CC[C@@H]1[C@@H]2CC[C@]2(C)C(=O)CC[C@@H]12 [DHEA, dehydroepiandosterone]",share of DHEA metabolites that represent A/enetriol,[4],9%
same,share of DHEA metabolites that were products of 3β-HSD and 17β-HSD,[4],37%
"C[C@]12CC[C@@H]3c4ccc(O)cc4C[C@@H](CCCCCCCCC[S+]([O-])CCCC(F)(F)C(F)(F)F)[C@H]3[C@@H]1CC[C@@H]2O (some centres unmarked) [ICI 182, 780]","effect on E2 and 7HD-induced transcription of luciferase, ERα co-transfected cells",[2]; 1 μM,completely abolished
same,activation of ERα (in words),[2],could not stimulate
C[C@]12CC[C@H]3[C@@H](CC[C@@]45O[C@@H]4C(O)=C(C#N)C[C@]35C)[C@@H]1CC[C@@H]2O [Trilostane],effect on production of A/anedione,3β-HSD,successfully blocked
